# Assay results as given in patent publication US12473295B2, “Substituted straight chain spiro derivatives” (Janssen Pharmaceutica NV, priority 2019, dated 2025).
# Structures can show the parent of a compound that is named as a salt.
# How the values were obtained:
# [1] = tested on: OCI-AML3 cells; assay: Proliferation assay (spheroid growth, 8 days), OCI-AML3; assay type: cell-based, human; details: Homo sapiens, OCI-AML-3, […], OCI-AML3, 8 days
# Outline: (§1)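 200 MOLM14 (MLL-AF9), 200 OCI-AML3 (NPM1c) or 300 KO-52 (MLL wildtype) cells were grown as spheroids in ultra-low attachment wells with compound, 0.3% DMSO, for 8 days at 37 °C. Confluence was imaged on day 8, normalized to DMSO and top-dose reference compound. IC50 came from a variable-slope fit constrained 0–100%.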
# [2] = molecular target: menin/MLL (terbium chelate-labeled menin, FITC-MBM1 peptide) (Homo sapiens (Human), UniProt O00255); assay: Menin/MLL homogenous time-resolved fluorescence (HTRF) assay; assay type: binding; details: HTRF-30 min incubation IC50, 30 min incubation;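 note: IC50 from percent inhibition of HTRF signal, normalized between wells without competitor and wells with a saturating competitor that displaces FITC-MBM1 from His-tagged menin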
# [3] = tested on: MEIS1 mRNA; assay: MEIS1 mRNA expression assay (Quantigene Singleplex) in MOLM14 cells; assay type: cell-based, human; details: Homo sapiens, MOLM-14, 48 h, 48 hours incubation;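 note: MEIS1 transcript levels read by probe hybridization and normalized to RPL28 mRNA, with IC50 fitted to fold changes across a rising compound concentration series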
# [4] = tested on: KO-52 cells; assay: Proliferation assay (spheroid growth, 8 days), KO-52 control cell line; assay type: cell-based, human; details: Homo sapiens, […], read-out: spheroid assay_OneTime KO-52 IC50
# Outline: as §1
# [5] = tested on: MOLM14 cells; assay: Proliferation assay (spheroid growth, 8 days), MOLM14; assay type: cell-based, human; details: Homo sapiens, MOLM-14, […], MOLM14, 8 days; read-out: spheroid assay_OneTime MOLM14 IC50;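 note: spheroid size read as confluence by live-cell imaging, compounds added at a range of concentrations with 0.3% DMSO, DMSO-treated wells = 0%, highest reference dose = low control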
# menin/MLL (terbium chelate-labeled menin, FITC-MBM1 peptide), sequence (O00255 other isoform, or with tags, fused parts or gaps): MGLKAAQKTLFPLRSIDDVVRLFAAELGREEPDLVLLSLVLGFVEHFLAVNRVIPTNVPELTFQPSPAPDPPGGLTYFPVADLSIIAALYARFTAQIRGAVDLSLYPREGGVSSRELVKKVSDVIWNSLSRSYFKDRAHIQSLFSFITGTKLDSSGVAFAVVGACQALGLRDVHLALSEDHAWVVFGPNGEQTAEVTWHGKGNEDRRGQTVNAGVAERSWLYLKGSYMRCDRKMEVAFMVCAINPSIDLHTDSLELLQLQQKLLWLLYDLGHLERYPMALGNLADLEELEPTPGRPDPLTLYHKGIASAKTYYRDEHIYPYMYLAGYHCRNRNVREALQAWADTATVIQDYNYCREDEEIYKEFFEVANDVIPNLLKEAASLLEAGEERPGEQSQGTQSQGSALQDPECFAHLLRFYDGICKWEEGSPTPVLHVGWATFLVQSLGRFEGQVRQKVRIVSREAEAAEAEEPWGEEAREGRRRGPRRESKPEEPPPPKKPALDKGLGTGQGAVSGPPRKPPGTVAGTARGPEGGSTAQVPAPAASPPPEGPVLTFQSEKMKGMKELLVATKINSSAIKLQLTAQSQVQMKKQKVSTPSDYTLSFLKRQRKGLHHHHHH
SMILES,IC50 [1] [nM],IC50 [2] [nM],IC50 [3] [nM],IC50 [5] [nM],IC50 [4] [nM]
"CCCN(C)C[C@H](O)C[C@H](C(C)C)N1CC2(CCN(c3ncnnc3Oc3ccc(F)cc3C(=O)N(CC)C(C)C)C2)C1 (single isomer, unassigned) [Compound 386, N-ethyl-5-fluoro-2-((5-(2-((3*R,5*R)-5-hydroxy-2-methyl-6-(methyl(propyl)amino)hexan-3-yl)-2,6-diazaspiro[3.4]octan-6-yl)-1,2,4-triazin-6-yl)oxy)-N-isopropylbenzamide fumarate]",810,~0.59,61,160,9600
"CCN(CC)C[C@H](O)C[C@@H](C(C)C)N1CC2(CCN(c3ncnnc3Oc3ccc(F)cc3C(=O)N(CC)C(C)C)C2)C1 (single isomer, unassigned) [Compound 336, 2-((5-(2-((3*S,5*R)-6-(diethylamino)-5-hydroxy-2-methylhexan-3-yl)-2,6-diazaspiro[3.4]octan-6-yl)-1,2,4-triazin-6-yl)oxy)-N-ethyl-5-fluoro-N-isopropylbenzamide fumarate]",870,0.21,61,70,> 15000
"CCN(C(=O)c1cc(F)ccc1Oc1nncnc1N1CCC2(C1)CN(C(CCCNCC(C)(C)OC)C(C)C)C2)C(C)C (stereo not shown) [Compound 69, N-ethyl-5-fluoro-N-isopropyl-2-((5-(2-(6-((2-methoxy-2-methylpropyl)amino)-2-methylhexan-3-yl)-2,6-diazaspiro[3.4]octan-6-yl)-1,2,4-triazin-6-yl)oxy)benzamide]",87,0.099,16,20,7180
"CC(C)[C@@H](CCCN(C)[C@@H](C)CC(N)=O)N1CC2(CCN(c3ncnnc3Oc3ccc(F)cc3C(=O)N(C(C)C)C(C)C)C2)C1 (single isomer, unassigned) [Compound 201, 2-((5-(2-((*R)-6-(((S)-4-amino-4-oxobutan-2-yl)(methyl)amino)-2-methylhexan-3-yl)-2,6-diazaspiro[3.4]octan-6-yl)-1,2,4-triazin-6-yl)oxy)-5-fluoro-N,N-diisopropylbenzamide fumarate]",65,0.13,52,40,> 15000
"CCN(C(=O)c1cc(F)ccc1Oc1nncnc1N1CCC2(C1)CN([C@H](CCNCC(N)=O)C(C)C)C2)C(C)C (single isomer, unassigned) [Compound 230, (*R)-2-((5-(2-(1-((2-amino-2-oxoethyl)amino)-4-methylpentan-3-yl)-2,6-diazaspiro[3.4]octan-6-yl)-1,2,4-triazin-6-yl)oxy)-N-ethyl-5-fluoro-N-isopropylbenzamide]",1160,~0.88,~940,> 940,> 15000
"CCN(C(=O)c1cc(F)ccc1Oc1nncnc1N1CCC2(C1)CN([C@H](CCNCCCO)C(C)C)C2)C(C)C (single isomer, unassigned) [Compound 273, (*R)—N-ethyl-5-fluoro-2-((5-(2-(1-((3-hydroxypropyl)amino)-4-methylpentan-3-yl)-2,6-diazaspiro[3.4]octan-6-yl)-1,2,4-triazin-6-yl)oxy)-N-isopropylbenzamide]",830,0.21,~390,390,> 15000
"CCN(C(=O)c1cc(F)ccc1Oc1nncnc1N1CCC2(C1)CN([C@H](CCCNCC(C)(C)OC)C(C)C)C2)C(C)C [Compound 135, (R)-N-ethyl-5-fluoro-N-isopropyl-2-((5-(2-(6-((2-methoxy-2-methylpropyl)amino)-2-methylhexan-3-yl)-2,6-diazaspiro[3.4]octan-6-yl)-1,2,4-triazin-6-yl)oxy)benzamide fumarate]",230,0.057,16,13,9690
"CCN(C(=O)c1cc(F)ccc1Oc1nncnc1N1CCC2(C1)CN([C@H](CCNC(C)C)C(C)C)C2)C(C)C (single isomer, unassigned) [Compound 229, (*R)—N-ethyl-5-fluoro-N-isopropyl-2-((5-(2-(1-(isopropylamino)-4-methylpentan-3-yl)-2,6-diazaspiro[3.4]octan-6-yl)-1,2,4-triazin-6-yl)oxy)benzamide fumarate]",870,0.37,360,320,> 15000

# Further lines, with some results ahead:
IC50 [1] [nM],IC50 [2] [nM],IC50 [3] [nM],IC50 [5] [nM],SMILES,IC50 [4] [nM]
67,0.051,27,22,"CCN(C(=O)c1cc(F)ccc1Oc1nncnc1N1CCC2(C1)CN([C@H](CCCN(C)[C@H](C)COC)C(C)C)C2)C(C)C [Compound 154, N-ethyl-5-fluoro-N-isopropyl-2-((5-(2-((R)-6-(((R)-1-methoxypropan-2-yl)(methyl)amino)-2-methylhexan-3-yl)-2,6-diazaspiro[3.4]octan-6-yl)-1,2,4-triazin-6-yl)oxy)benzamide fumarate]",> 15000
97,0.35,110,150,"CCN(C(=O)c1cc(F)ccc1Oc1nncnc1N1CCC2(C1)CN([C@H](CCCCN(C)C)C(C)C)C2)C(C)C (single isomer, unassigned) [Compound 211]",> 15000
150,0.077,130,18,"CCN(C(=O)c1cc(F)ccc1Oc1nncnc1N1CCC2(C1)CN([C@H](C[C@H](O)CN(C)CCOC)C(C)C)C2)C(C)C (single isomer, unassigned) [Compound 352, N-ethyl-5-fluoro-2-((5-(2-((3*R,5S)-5-hydroxy-6-((2-methoxyethyl)(methyl)amino)-2-methylhexan-3-yl)-2,6-diazaspiro[3.4]octan-6-yl)-1,2,4-triazin-6-yl)oxy)-N-isopropylbenzamide fumarate]",> 15000
120,0.13,17,38,"CCN(C(=O)c1cc(F)ccc1Oc1nncnc1N1CCC2(C1)CN([C@H](CCCN(C)C[C@H](COC)OC)C(C)C)C2)C(C)C (single isomer, unassigned) [Compound 176, 2-((5-(2-((R)-6-(((*R)-2,3-dimethoxypropyl)(methyl)amino)-2-methylhexan-3-yl)-2,6-diazaspiro[3.4]octan-6-yl)-1,2,4-triazin-6-yl)oxy)-N-ethyl-5-fluoro-N-isopropylbenzamide fumarate]",> 15000
340,0.43,34,55,"CCN(C(=O)c1cc(F)ccc1Oc1nncnc1N1CCC2(C1)CN([C@H](CCCN(C)C[C@@H](C)C(=O)N(C)C)C(C)C)C2)C(C)C (single isomer, unassigned) [Compound 188]",> 15000
250,0.16,65,46,"CCN(C(=O)c1cc(F)ccc1Oc1nncnc1N1CCC2(C1)CN([C@H](CCCN(C)CCO)C(C)C)C2)C(C)C [Compound 259, (R)-N-ethyl-5-fluoro-2-((5-(2-(6-((2-hydroxyethyl)(methyl)amino)-2-methylhexan-3-yl)-2,6-diazaspiro[3.4]octan-6-yl)-1,2,4-triazin-6-yl)oxy)-N-isopropylbenzamide fumarate]",> 15000
44,0.079,17,23,"CCN(C(=O)c1cc(F)ccc1Oc1nncnc1N1CCC2(C1)CN([C@H](CCCN(C)CC(C)C(=O)N(C)C)C(C)C)C2)C(C)C (stereo partly drawn) [Compound 181, 2-((5-(2-((3R)-6-((3-(dimethylamino)-2-methyl-3-oxopropyl)(methyl)amino)-2-methylhexan-3-yl)-2,6-diazaspiro[3.4]octan-6-yl)-1,2,4-triazin-6-yl)oxy)-N-ethyl-5-fluoro-N-isopropylbenzamide fumarate]",14000
130,0.18,19,52,"CCN(C(=O)c1cc(F)ccc1Oc1nncnc1N1CCC2(C1)CN([C@H](CCCN(C)C[C@H](C)OC)C(C)C)C2)C(C)C (single isomer, unassigned) [Compound 251, N-ethyl-5-fluoro-N-isopropyl-2-((5-(2-((R)-6-(((*S)-2-methoxypropyl)(methyl)amino)-2-methylhexan-3-yl)-2,6-diazaspiro[3.4]octan-6-yl)-1,2,4-triazin-6-yl)oxy)benzamide oxalate]",3900
3500,2.13,> 1000,> 940,"CCN(C)CCC[C@@H](C(C)C)N1CC2(CCN(c3ncnnc3Oc3ccc(F)cc3C(=O)N(CC)C(C)C)C2)C1 (single isomer, unassigned) [Compound 133, (*S)—N-ethyl-2-((5-(2-(6-(ethyl(methyl)amino)-2-methylhexan-3-yl)-2,6-diazaspiro[3.4]octan-6-yl)-1,2,4-triazin-6-yl)oxy)-5-fluoro-N-isopropylbenzamide fumarate]",> 15000
